Test results taken from patent US20240116856A1 (Young BioPharma, LLC, priority 2020, published 2024).
Entries after “also recorded” stand apart in the source; their conditions may differ. Where two headings read alike, the source gives them in different places.

Tests used:
OVCAR-8 = assay: Human cancer cell growth inhibition assay (ATP assay), OVCAR-8; assay type: cell-based; conditions: Homo sapiens, OVCAR-8, 96 h; 4 days; Means±SEM from three independent experiments; read-out: OVCAR-8, IC50
MDA-MB-231 = assay: Human cancer cell growth inhibition assay (ATP assay), MDA-MB-231; assay type: cell-based; conditions: Homo sapiens, MDA-MB-231, 96 h; 4 days; Means±SEM from three independent experiments; read-out: MDA-MB-231, IC50
NCI-H460 = assay: Human cancer cell growth inhibition assay (ATP assay), NCI-H460; assay type: cell-based; conditions: Homo sapiens, NCI-H460, 96 h; 4 days; Means±SEM from three independent experiments; read-out: NCl-H460, IC50
[1] = Mouse liver microsome stability; assay type: in vitro ADME; conditions: liver microsomes, C57BL6 mouse liver microsome
human TRPV3 = target: T1, human TRPV3 (Homo sapiens, UniProt Q8NET8); assay: In vitro Ca2+ flux counter-screen in human TRPV3 overexpressing cells; assay type: cell-based; conditions: counter-screen; read-out: TRPV3 EC50
T1 construct: expressed in transfected cells; host or cells: overexpressing cells
T1 sequence (Q8NET8 1-790): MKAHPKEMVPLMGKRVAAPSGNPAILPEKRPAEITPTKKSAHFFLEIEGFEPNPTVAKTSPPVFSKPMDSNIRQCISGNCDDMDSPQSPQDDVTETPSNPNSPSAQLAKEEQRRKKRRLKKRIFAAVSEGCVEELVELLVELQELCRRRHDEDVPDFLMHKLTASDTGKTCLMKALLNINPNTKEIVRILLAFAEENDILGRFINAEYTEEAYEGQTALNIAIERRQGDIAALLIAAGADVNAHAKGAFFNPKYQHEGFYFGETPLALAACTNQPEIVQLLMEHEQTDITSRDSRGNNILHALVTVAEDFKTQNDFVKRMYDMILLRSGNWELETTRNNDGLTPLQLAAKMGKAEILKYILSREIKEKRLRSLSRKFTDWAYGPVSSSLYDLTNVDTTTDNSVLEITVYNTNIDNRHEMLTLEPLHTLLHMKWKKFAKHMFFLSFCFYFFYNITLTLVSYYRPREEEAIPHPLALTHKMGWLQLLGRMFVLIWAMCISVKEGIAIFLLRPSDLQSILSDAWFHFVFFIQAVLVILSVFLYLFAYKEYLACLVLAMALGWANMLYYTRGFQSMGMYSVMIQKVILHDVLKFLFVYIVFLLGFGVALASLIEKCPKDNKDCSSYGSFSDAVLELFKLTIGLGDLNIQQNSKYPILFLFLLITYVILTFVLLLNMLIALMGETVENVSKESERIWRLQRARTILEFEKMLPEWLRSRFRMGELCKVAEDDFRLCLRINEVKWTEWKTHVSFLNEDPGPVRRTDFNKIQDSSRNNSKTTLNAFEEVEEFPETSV

MDA-MB-231 cell invasion = assay: Cancer cell invasion assay, MDA-MB-231; assay type: cell-based, human; conditions: 24 h
Procedure: A cancer cell invasion assay was developed based on literature protocols (Methods 2005, 37, 208; EMBO J 2002, 21, 6289; Cellular Signalling 2012, 24, 1276.). Membrane matrix gel (Cat #A1413201, ThermoFisher) was diluted in ice-cold, serum-free RPMI 1640 Medium (Cat #31800022, ThermoFisher) at a concentration of 0.5-0.6 mg/mL. Then it was added to the upper compartment (100 μL per cup) of millicell inserts (Cat #PI8P01250, ThermoFisher) placed in a 24-well plate (Part no. 229123, Celltreat). The plate was incubated at 37° C. for 2 h to allow the liquid gel to solidify. RPMI 1640 Medium supplemented with 10% FBS (300 μL) was added to the well of the plate (lower compartment) as attractant, then DMSO or compounds were added. Human cancer cells (1×10^5 cells in 200 μL of RPMI 1640 Medium) were added to the upper compartment of the insert, then DMSO or compounds were added. After the plate was incubated at 37° C. for 24 h, the cells were fixed on the lower side of the insert membrane with 4% formaldehyde and stained with 1% crystal violet (Part no. IS12146, Innovating Science). The invaded cells on the lower side of the filter were counted under an inverted microscope equipped with either a 4× or a 10× objective (FIG. 11). The cell numbers from 5 random views were averaged and plotted as percentage against the DMSO control (FIG. 12A).

In vivo mouse PK = conditions: IV 0.4 mg/kg, C57BL6 mouse
human TRPV1 = target: T2, human TRPV1 (Homo sapiens, UniProt Q8NER1); assay: In vitro Ca2+ flux assay in human TRPV1 transfected HEK 293 cells; assay type: cell-based; conditions: read-out: TRPV1 EC50
T2 construct: DYK (FLAG) tag from vector pcDNA3.1+/C-(K)DYK (C); host or cells: FreeStyle 293-F cells (HEK 293), transient transfection

[2] = both, mouse, in vivo, 1 min
[3] = set-up: decrease in the second phase of the formalin test: dose or concentration left out as unconfirmed; conditions: intraplantar
human TRPA1 = target: T3, human TRPA1 (Homo sapiens, UniProt O75762); assay: In vitro Ca2+ flux counter-screen in human TRPA1 overexpressing cells; assay type: cell-based; conditions: counter-screen; read-out: TRPA1 EC50
T3 construct: expressed in transfected cells; host or cells: overexpressing cells

[4] = SubQ 6 mg/kg
[5] = Operant Pain Tolerance Assay; assay type: in vivo; conditions: intraplantar
Procedure: Model 3—The ability of YB-16 to increase pain tolerance was tested using a newly published Operant Pain Tolerance Assay (eNeuro 2020, 7, ENEURO.0210-19.2020). In the assay, mice were trained to seek a sucrose reward that was on a hot 42° C. plate (versus no reward on a neutral 30° C. plate). It was noticed that intraplantar YB-16 treated mice with paw inflammatory injury [induced by Complete Freund's adjuvant (CFA) 24 hrs prior to treatment] trended to spend 145% more time on the hot side of the assay but not necessarily additional time near the sucrose bottle compared to vehicle treated mice (FIG. 10B).

TRPV1 = target: T4, TRPV1 (Mus musculus, UniProt Q704Y3); assay: Ca2+ imaging of primary mouse dorsal root ganglion (DRG) neurons, TRPV1 desensitization; assay type: cell-based; conditions: then capsaicin 0.5 μM
T4 construct: DRG was isolated from male and female mice expressing GCaMP6f in neurons; endogenous in cells; host or cells: dissociated primary DRG neurons from GCaMP6f-expressing mice

[6] = Means±SEM from three independent experiments
[7] = first treatment capsaicin 0.5 μM, YB-11 0.5 μM or YB-16 1.0 μM, paired t-test

T4 sequence (Q704Y3 whole entry): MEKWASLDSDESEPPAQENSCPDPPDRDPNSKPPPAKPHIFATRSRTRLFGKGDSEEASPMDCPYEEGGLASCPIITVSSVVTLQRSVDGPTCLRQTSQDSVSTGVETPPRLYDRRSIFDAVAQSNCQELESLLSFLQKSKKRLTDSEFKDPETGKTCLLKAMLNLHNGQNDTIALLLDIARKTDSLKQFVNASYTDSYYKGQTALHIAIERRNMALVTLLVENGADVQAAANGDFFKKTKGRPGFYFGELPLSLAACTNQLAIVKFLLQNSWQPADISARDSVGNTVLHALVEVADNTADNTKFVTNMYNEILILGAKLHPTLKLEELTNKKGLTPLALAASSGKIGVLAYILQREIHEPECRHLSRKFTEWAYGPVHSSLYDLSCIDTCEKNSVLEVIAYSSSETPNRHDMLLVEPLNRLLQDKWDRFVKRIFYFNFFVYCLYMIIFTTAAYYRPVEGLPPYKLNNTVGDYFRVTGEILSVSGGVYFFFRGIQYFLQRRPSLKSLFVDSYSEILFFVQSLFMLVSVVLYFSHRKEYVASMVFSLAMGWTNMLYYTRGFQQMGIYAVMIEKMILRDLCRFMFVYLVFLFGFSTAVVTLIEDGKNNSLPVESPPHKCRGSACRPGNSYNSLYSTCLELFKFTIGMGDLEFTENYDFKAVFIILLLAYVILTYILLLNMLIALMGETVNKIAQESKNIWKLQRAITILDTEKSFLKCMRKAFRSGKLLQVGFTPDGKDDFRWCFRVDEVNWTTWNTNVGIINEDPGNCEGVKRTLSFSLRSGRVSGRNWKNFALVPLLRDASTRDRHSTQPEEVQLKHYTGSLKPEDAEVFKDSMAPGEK
T2 sequence (Q8NER1 whole entry): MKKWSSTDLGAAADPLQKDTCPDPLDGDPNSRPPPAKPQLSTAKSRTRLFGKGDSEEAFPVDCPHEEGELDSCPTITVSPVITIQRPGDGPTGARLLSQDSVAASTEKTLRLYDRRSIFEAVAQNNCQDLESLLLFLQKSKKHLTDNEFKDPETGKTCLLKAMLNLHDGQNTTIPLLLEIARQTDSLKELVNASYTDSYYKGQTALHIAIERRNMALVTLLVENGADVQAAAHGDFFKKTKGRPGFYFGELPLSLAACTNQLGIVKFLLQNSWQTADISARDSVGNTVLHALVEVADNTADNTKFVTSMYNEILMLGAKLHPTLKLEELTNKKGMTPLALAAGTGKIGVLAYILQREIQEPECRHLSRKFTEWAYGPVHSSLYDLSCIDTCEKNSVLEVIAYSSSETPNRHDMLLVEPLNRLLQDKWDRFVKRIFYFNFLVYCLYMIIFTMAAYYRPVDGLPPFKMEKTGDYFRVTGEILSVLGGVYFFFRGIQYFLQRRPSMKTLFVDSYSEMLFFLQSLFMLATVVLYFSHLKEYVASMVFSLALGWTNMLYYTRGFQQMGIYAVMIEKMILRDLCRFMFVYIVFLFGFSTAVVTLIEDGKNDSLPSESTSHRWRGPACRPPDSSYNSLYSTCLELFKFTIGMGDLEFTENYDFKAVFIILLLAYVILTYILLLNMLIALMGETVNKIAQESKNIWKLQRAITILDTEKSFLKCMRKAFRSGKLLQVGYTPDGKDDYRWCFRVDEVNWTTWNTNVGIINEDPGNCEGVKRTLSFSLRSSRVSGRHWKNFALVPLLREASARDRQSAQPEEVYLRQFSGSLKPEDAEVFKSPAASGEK
T3 sequence (O75762 whole entry): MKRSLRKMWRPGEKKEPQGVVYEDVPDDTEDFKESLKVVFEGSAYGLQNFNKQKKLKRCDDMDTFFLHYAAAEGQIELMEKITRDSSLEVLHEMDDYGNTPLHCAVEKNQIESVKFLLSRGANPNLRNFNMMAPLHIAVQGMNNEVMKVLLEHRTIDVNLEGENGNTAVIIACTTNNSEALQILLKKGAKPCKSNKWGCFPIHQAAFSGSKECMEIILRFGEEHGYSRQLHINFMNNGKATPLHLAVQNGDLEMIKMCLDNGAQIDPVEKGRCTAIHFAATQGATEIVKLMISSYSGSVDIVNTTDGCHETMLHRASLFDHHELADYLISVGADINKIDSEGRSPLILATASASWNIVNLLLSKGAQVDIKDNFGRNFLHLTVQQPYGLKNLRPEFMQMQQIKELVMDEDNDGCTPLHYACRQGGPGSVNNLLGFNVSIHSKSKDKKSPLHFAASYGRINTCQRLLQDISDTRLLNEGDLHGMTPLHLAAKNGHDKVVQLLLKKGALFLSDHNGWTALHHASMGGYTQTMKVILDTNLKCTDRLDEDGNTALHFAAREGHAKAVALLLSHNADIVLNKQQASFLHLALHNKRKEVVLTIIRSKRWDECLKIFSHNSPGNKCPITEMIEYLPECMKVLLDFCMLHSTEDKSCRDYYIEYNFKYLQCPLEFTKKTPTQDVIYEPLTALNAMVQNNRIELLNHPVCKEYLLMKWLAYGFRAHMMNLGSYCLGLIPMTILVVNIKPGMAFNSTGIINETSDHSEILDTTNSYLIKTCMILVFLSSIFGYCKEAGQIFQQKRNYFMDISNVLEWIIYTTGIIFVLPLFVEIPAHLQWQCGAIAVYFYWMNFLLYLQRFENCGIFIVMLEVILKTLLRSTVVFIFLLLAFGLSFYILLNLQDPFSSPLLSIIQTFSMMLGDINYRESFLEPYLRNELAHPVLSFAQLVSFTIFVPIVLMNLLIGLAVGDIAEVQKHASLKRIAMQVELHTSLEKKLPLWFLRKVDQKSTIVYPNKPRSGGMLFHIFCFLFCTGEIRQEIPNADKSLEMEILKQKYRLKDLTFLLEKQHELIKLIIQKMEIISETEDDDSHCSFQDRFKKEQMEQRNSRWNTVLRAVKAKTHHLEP

| SMILES | IC50 (OVCAR-8) [µM] | IC50 (MDA-MB-231) [µM] | IC50 (NCI-H460) [µM] | EC50 (human TRPV3) [µM] | EC50 (human TRPV1; [6]) [µM] | MPP [2] [mg/mL] | animal death and sedation in formalin test [3] | EC50 (human TRPA1) [µM] | further results |
| --- | --- | --- | --- | --- | --- | --- | --- | --- | --- |
| COc1cc(CNC(=O)CCCC/C=C/C(C)C)ccc1N [YB-2] | 200 ± 22 | 342 ± 30 | 350 ± 25 | > 10 | < 0.1 | 0.233 | No mice treated with YB-16, YB-11 or YB-2 died or experienced sedative reaction | > 10 | CLint scaled at 2 μM [1]: 1780 mL/min/kg; inhibition of MDA-MB-231 cell invasion (MDA-MB-231 cell invasion): dose-dependently inhibited; λz (In vivo mouse PK): 4.1 h⁻¹; EC50 (human TRPV1; Table 3 comparison, YB-2 tested as a HCl salt): 0.082 µM; effect in the second phase of the formalin test ([3]; 2 hr prior to formalin): significant analgesic effect in the second phase for male mice only; effect on formalin spontaneous pain-like behavior ([3]; 2 hr prior to formalin): did not reduce formalin behavior at any dose tested |
| COCCOCCOCCC(=O)Oc1ccc(CC(=O)N/C=C/c2ccc(C(F)(F)F)cc2)cc1OC [YB-16] | 16 | > 100 | > 100 | > 10 | 0.93 | 0.302 | No mice treated with YB-16, YB-11 or YB-2 died or experienced sedative reaction | > 10 | MPE (maximum possible effect) increase compared to vehicle [4]: 270%; sedation in operant pain tolerance assay [5]: inflammatory injury with no sedation; sensitivity to hot plate after inflammatory injury ([5]; paw inflammatory injury (CFA)): trended to reduce sensitivity to hot plate after inflammatory injury compared to vehicle; also recorded: trended to increase time in a 42 °C chamber; also recorded: Trend for reduced sensitivity to hot; TRPV1-sensitive neurons showing desensitization (TRPV1; first treatment 1.0 μM): 79%; area under the curve of the Ca2+ signal of the second (capsaicin) application (TRPV1; [7]): statistically significant reduction; also recorded: significantly reduced; max Ca2+ signal of the second (capsaicin) application (TRPV1; [7]): statistically significant reduction; also recorded: significantly reduced; decrease in the second phase of the formalin test ([3]; 2 hr prior to formalin): 54%; reduction of formalin first phase behavior ([3]; 2 hr prior to formalin): 60% |
